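Briefly, cells in 96-well plates were exposed to five compound concentrations for 48 h, and endpoints were estimated by linear interpolation. GI50 = concentration required for 50% inhibition of growth.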 Active and inactive are the calls of the source. No stated cut-off is given here; in the data, active = GI50 up to about 1.1 µM and inactive = higher.
What was measured:
Experiment in all cases: NCI-60 cell line screen, 48 h
SNB-19 = tested on: SNB-19
NCI-H226 = tested on: NCI-H226
OVCAR-3 = tested on: OVCAR-3
RXF 393 = tested on: RXF 393
SF-295 = tested on: SF-295
UACC-257 = tested on: UACC-257
786-0 = tested on: 786-0
HT-29 = tested on: HT-29
COLO 205 = tested on: COLO 205
NCI-H23 = tested on: NCI-H23
CAKI-1 = tested on: CAKI-1
LOX IMVI = tested on: LOX IMVI
HL-60 = tested on: HL-60
M14 = tested on: M14
UACC-62 = tested on: UACC-62
RPMI-8226 = tested on: RPMI-8226
SR = tested on: SR

Measured: GI50

O=[N+]([O-])C(/C=N/Nc1ccccc1)/C=N/Nc1ccccc1
inactive: SNB-19 > 100 µM | NCI-H226 > 100 µM | OVCAR-3 > 100 µM | RXF 393 > 100 µM | SF-295 > 100 µM | UACC-257 > 100 µM | 786-0 > 100 µM | HT-29 > 100 µM | COLO 205 > 100 µM | NCI-H23 > 100 µM | CAKI-1 > 100 µM | LOX IMVI > 100 µM | HL-60 > 100 µM | M14 > 100 µM | UACC-62 > 100 µM

COc1ccc(/C=C2\CCC(C)(CN(C)C)C2=O)cc1OC (stereo unspecified)
inactive: SNB-19 > 100 µM | RPMI-8226 > 100 µM | NCI-H226 > 100 µM | OVCAR-3 > 100 µM | RXF 393 > 100 µM | SF-295 > 100 µM | UACC-257 > 100 µM | 786-0 > 100 µM | HT-29 > 100 µM | COLO 205 > 100 µM | NCI-H23 > 100 µM | CAKI-1 > 100 µM | LOX IMVI > 100 µM | M14 > 100 µM | UACC-62 > 100 µM

CNC(=O)CN(CC(=O)O)C(=O)NC
inactive: SNB-19 > 100 µM | RPMI-8226 > 100 µM | OVCAR-3 > 100 µM | RXF 393 > 100 µM | SF-295 > 100 µM | UACC-257 > 100 µM | 786-0 > 100 µM | HT-29 > 100 µM | SR > 100 µM | COLO 205 > 100 µM | NCI-H23 > 100 µM | CAKI-1 > 100 µM | LOX IMVI > 100 µM | HL-60 > 100 µM | M14 > 100 µM | UACC-62 > 100 µM

C/C(O[Si](C(C)C)(C(C)C)C(C)C)=C(\C)C(=O)N(C)c1ccccc1Cl
inactive: SNB-19 > 100 µM | RPMI-8226 > 100 µM | NCI-H226 > 100 µM | OVCAR-3 > 100 µM | RXF 393 > 100 µM | SF-295 > 100 µM | UACC-257 > 100 µM | 786-0 > 100 µM | HT-29 > 100 µM | COLO 205 > 100 µM | NCI-H23 > 100 µM | CAKI-1 > 100 µM | LOX IMVI > 100 µM | M14 > 100 µM

COc1cc2c(cc1OC)c1c(OC)c(OC)cc3c1c1c2sc(=S)n1CC3
inactive: SNB-19 67.1 µM | RPMI-8226 32.1 µM | NCI-H226 > 100 µM | OVCAR-3 55.5 µM | RXF 393 89.1 µM | SF-295 > 100 µM | UACC-257 > 100 µM | 786-0 18.1 µM | HT-29 50.2 µM | COLO 205 > 100 µM | NCI-H23 44.4 µM | CAKI-1 > 100 µM | LOX IMVI 31.5 µM | HL-60 26.9 µM | M14 18.4 µM | UACC-62 24.4 µM

CC(=O)Oc1cc2c(cc1OC(C)=O)C1(C)CCC2(C)c2cc(OC(C)=O)c(OC(C)=O)cc21
inactive: SNB-19 4.75 µM | RPMI-8226 3.52 µM | OVCAR-3 10.2 µM | RXF 393 40.7 µM | SF-295 24.5 µM | UACC-257 11.3 µM | 786-0 15 µM | HT-29 4.75 µM | COLO 205 51.4 µM | NCI-H23 43.2 µM | CAKI-1 8.55 µM | LOX IMVI 12.6 µM | HL-60 4.13 µM | M14 18.3 µM | UACC-62 13.2 µM

CC(C)N1CN(C(C(=O)N[C@@H]2C(=O)N3C2SC(C)(C)C3C(=O)O)c2ccccc2)CSC1=S (stereo partly specified)
inactive: SNB-19 > 100 µM | RPMI-8226 69.5 µM | OVCAR-3 > 100 µM | SF-295 > 100 µM | UACC-257 > 100 µM | 786-0 > 100 µM | HT-29 96.6 µM | COLO 205 46.9 µM | NCI-H23 > 100 µM | CAKI-1 > 100 µM | LOX IMVI 83.9 µM | HL-60 > 100 µM | M14 > 100 µM | UACC-62 > 100 µM

CN(N=O)C(=O)N(N)CCCCC(NC(=O)OCc1ccccc1)C(=O)OCc1ccccc1 (stereo unspecified)
inactive: SNB-19 > 100 µM | RPMI-8226 > 100 µM | NCI-H226 22.2 µM | OVCAR-3 23.1 µM | RXF 393 12.9 µM | SF-295 75.9 µM | UACC-257 18.7 µM | 786-0 18.5 µM | HT-29 79.6 µM | COLO 205 18.5 µM | NCI-H23 14.6 µM | CAKI-1 25.6 µM | LOX IMVI 17.9 µM | HL-60 5.25 µM | M14 23 µM | UACC-62 18.5 µM

COc1ccc2n[se]nc2c1
inactive: SNB-19 69.2 µM | RPMI-8226 > 100 µM | RXF 393 48.4 µM | SF-295 32 µM | UACC-257 54.6 µM | 786-0 48.3 µM | HT-29 > 100 µM | COLO 205 > 100 µM | NCI-H23 > 100 µM | CAKI-1 > 100 µM | LOX IMVI > 100 µM | HL-60 > 100 µM | M14 > 100 µM | UACC-62 > 100 µM

O=C1CCCC1NC(=O)C(F)(F)F (stereo unspecified)
inactive: SNB-19 > 100 µM | NCI-H226 > 100 µM | OVCAR-3 > 100 µM | RXF 393 > 100 µM | SF-295 > 100 µM | UACC-257 > 100 µM | 786-0 > 100 µM | HT-29 > 100 µM | NCI-H23 > 100 µM | CAKI-1 > 100 µM | HL-60 > 100 µM | M14 > 100 µM | UACC-62 > 100 µM

O=C(O)CN(c1ccccc1)S(=O)(=O)c1ccccc1[N+](=O)[O-]
inactive: SNB-19 > 100 µM | RPMI-8226 > 100 µM | NCI-H226 > 100 µM | OVCAR-3 > 100 µM | RXF 393 > 100 µM | SF-295 > 100 µM | UACC-257 > 100 µM | 786-0 > 100 µM | HT-29 > 100 µM | COLO 205 > 100 µM | NCI-H23 > 100 µM | CAKI-1 > 100 µM | LOX IMVI > 100 µM | HL-60 > 100 µM | M14 > 100 µM | UACC-62 > 100 µM

COc1cccc(/C=C2\CCC(CCN(C)C)(C3=CCCC3)C2=O)c1 (stereo unspecified)
inactive: SNB-19 16.8 µM | RPMI-8226 11.7 µM | NCI-H226 17.1 µM | OVCAR-3 17.3 µM | RXF 393 8.73 µM | SF-295 17 µM | UACC-257 15.5 µM | 786-0 14.7 µM | HT-29 13.8 µM | SR 35.5 µM | COLO 205 8.3 µM | NCI-H23 19.3 µM | CAKI-1 12.3 µM | LOX IMVI 15.6 µM | M14 14.4 µM | UACC-62 15.4 µM

CN1CCN(CN2C(=O)C3C4C=CC(C3C2=O)C2C3C(=O)N(CN5CCN(C)CC5)C(=O)C3C42)CC1 (stereo unspecified)
inactive: RPMI-8226 24.7 µM | OVCAR-3 21.4 µM | RXF 393 22.9 µM | 786-0 18.2 µM | HT-29 33.4 µM | SR 16.4 µM | COLO 205 17.5 µM | NCI-H23 21.2 µM | LOX IMVI 17.9 µM | M14 16.4 µM | UACC-62 22.2 µM
